Data on 21 compounds can be found in US9676714B2, “Sulfonylindole derivatives and method for preparing the same” (Daewoong Pharmaceutical Co., Ltd., priority 2013, dated 2017).

Structures are written as SMILES. Counter-ions that a name gives are not always drawn.

T1 sequence (P19156 whole entry): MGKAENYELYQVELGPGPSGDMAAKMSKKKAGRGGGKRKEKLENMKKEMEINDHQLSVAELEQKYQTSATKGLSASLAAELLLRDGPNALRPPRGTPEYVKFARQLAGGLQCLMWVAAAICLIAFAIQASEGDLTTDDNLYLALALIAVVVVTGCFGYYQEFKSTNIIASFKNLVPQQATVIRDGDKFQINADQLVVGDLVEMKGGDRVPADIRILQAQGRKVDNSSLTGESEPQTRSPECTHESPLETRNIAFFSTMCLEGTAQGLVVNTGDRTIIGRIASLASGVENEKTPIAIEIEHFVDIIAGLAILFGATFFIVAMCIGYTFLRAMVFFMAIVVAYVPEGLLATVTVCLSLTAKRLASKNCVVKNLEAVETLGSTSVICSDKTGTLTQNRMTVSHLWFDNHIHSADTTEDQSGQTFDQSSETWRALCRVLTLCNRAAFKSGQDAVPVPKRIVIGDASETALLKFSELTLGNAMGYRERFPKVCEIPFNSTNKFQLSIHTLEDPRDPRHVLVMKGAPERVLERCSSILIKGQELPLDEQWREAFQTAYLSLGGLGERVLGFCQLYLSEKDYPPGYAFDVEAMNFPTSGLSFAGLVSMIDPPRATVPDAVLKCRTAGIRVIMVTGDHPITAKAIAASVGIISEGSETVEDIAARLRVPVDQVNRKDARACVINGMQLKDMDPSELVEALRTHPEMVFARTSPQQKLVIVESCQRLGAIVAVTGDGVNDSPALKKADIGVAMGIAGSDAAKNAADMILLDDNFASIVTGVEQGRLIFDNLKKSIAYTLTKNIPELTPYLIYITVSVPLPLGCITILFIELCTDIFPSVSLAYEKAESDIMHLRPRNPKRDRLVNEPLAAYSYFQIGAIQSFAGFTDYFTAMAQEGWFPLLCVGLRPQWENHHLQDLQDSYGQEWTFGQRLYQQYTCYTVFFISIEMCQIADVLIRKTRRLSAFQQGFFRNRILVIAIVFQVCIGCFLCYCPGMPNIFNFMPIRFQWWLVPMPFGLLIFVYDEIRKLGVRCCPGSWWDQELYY
T1 sequence (P18434 whole entry partner): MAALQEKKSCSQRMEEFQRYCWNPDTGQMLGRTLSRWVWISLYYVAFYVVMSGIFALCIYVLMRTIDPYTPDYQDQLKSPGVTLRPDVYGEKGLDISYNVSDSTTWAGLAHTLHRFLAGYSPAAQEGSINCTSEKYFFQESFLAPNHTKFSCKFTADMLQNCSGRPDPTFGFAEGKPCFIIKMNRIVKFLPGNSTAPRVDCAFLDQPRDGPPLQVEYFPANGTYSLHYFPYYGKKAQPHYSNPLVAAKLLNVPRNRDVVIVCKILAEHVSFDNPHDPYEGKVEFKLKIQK

This test has as its target T1, proton pump (H+/K+-ATPase) (Sus scrofa, UniProt P19156).
T1 construct: Gastric vesicles were prepared from hog stomach via centrifugal separation; from tissue; host or cells: hog stomach (gastric vesicles, method of Rabon et al. 1988)
The test is described as follows: Measurement of inhibitory effects on proton pump (H+/K+-ATPase) activities. In kind it is biochemical. As to conditions: hog gastric vesicles, K+-specific H+/K+-ATPase activity, Tris-HCl buffer pH 7.4, 37° C. for 40 minutes, malachite green Pi readout. Summed up:
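Hog gastric vesicles in 60 mmol/l Tris-HCl pH 7.4 with 0.5% DMSO were treated with compounds at room temperature; reaction was started with 10 μl of 10 mmol/l ATP stock. Released Pi was read at 570 nm, K+-specific activity taken as the ±K+ difference. IC50 from 4-parameter logistic fit.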
The term IC50 denotes the midpoint of a concentration-inhibition curve. A lower IC50 goes with inhibition by little substance. With `CNCc1cn(S(=O)(=O)c2cccc(C(F)(F)F)c2)c2cc(Nc3ccc(Cl)nc3Cl)ccc12` [Example 193, N-(2,6-dichloropyridin-3-yl)-3-((methylamino)methyl)-1-((3-(trifluoromethyl)phenyl)sulfonyl)-1H-indol-6-amine hydrochloride], the IC50 worked out at 580 nM.

`CNCc1cn(S(=O)(=O)c2cccc(C(F)(F)F)c2)c2cc(Nc3ccc(C(F)(F)F)nc3Cl)ccc12` [Example 195, N-(2-chloro-6-(trifluoromethyl)pyridin-3-yl)-3-((methylamino)methyl)-1-((3-(trifluoromethyl)phenyl)sulfonyl)-1H-indol-6-amine hydrochloride] gave an IC50 of 1270 nM.

Turning to `CNCc1cn(S(=O)(=O)c2cccc(OC(F)(F)F)c2)c2cc(Nc3ccc(C)cc3Cl)ccc12` [Example 196, N-(2-chloro-4-methylphenyl)-3-((methylamino)methyl)-1-((3-(trifluoromethoxy)phenyl)sulfonyl)-1H-indol-6-amine hydrochloride], the IC50 was 390 nM.

In the case of `CNCc1cn(S(=O)(=O)c2cccc(OC(F)(F)F)c2)c2cc(Nc3ccc(Cl)cc3F)ccc12` [Example 197, N-(4-chloro-2-fluorophenyl)-3-((methylamino)methyl)-1-((3-(trifluoromethoxy)phenyl)sulfonyl)-1H-indol-6-amine hydrochloride], the half-inhibitory concentration (IC50) was found to be 850 nM.

Consider `CNCc1cn(S(=O)(=O)c2cccc(OC(F)(F)F)c2)c2cc(Nc3ccc(C(F)(F)F)cc3Cl)ccc12` [Example 198, N-(2-chloro-4-(trifluoromethyl)phenyl)-3-((methylamino)methyl)-1-((3-(trifluoromethoxy)phenyl)sulfonyl)-1H-indol-6-amine hydrochloride], for which the IC50 was 160 nM.

Compound `CNCc1cn(S(=O)(=O)c2cccc(OC(F)(F)F)c2)c2cc(Nc3ccc(OC)cc3F)ccc12` [Example 199, N-(2-fluoro-4-methoxyphenyl)-3-(methylamino)methyl)-1-((3-(trifluoromethoxy)phenyl)sulfonyl)-1H-indol-6-amine hydrochloride] registered an IC50 of 340 nM.

Consider `CNCc1cn(S(=O)(=O)c2cccc(OC(F)(F)F)c2)c2cc(Nc3ccc(OC(F)(F)F)cc3C)ccc12` [Example 200, N-(2-methyl-4-(trifluoromethoxy)phenyl)-3-((methylamino)methyl)-1-((3-(trifluoromethoxy)phenyl)sulfonyl)-1H-indol-6-amine hydrochloride], for which the IC50 stood at 900 nM.

On to `CNCc1cn(S(=O)(=O)c2cccc(OC(F)(F)F)c2)c2cc(Nc3ccc(OC(F)(F)F)cc3Cl)ccc12` [Example 201, N-(2-chloro-4-(trifluoromethoxy)phenyl)-3-((methylamino)methyl)-1-((3-(trifluoromethoxy)phenyl)sulfonyl)-1H-indol-6-amine hydrochloride], for which inhibition was half-maximal at 660 nM (IC50).

As for `CNCc1cn(S(=O)(=O)c2cccc(OC(F)(F)F)c2)c2cc(Nc3ccc(OC(F)(F)F)cc3OC)ccc12` [Example 202, N-(2-methoxy-4-(trifluoromethoxy)phenyl)-3-((methylamino)methyl)-1-((3-(trifluoromethoxy)phenyl)sulfonyl)-1H-indol-6-amine hydrochloride], the midpoint of inhibition, the IC50, lay at 580 nM.

`CNCc1cn(S(=O)(=O)c2cccc(OC(F)(F)F)c2)c2cc(Nc3ccc(C)c(F)c3F)ccc12` [Example 203, N-(2,3-difluoro-4-methylphenyl)-3-((methylamino)methyl)-1-((3-(trifluoromethoxy)phenyl)sulfonyl)-1H-indol-6-amine hydrochloride]: the IC50 was 450 nM.

Consider `CNCc1cn(S(=O)(=O)c2cccc(OC(F)(F)F)c2)c2cc(Nc3ccc(C)nc3F)ccc12` [Example 204, N-(2-fluoro-6-methylpyridin-3-yl)-3-((methylamino)methyl)-1-((3-(trifluoromethoxy)phenyl)sulfonyl)-1H-indol-6-amine hydrochloride], for which 500 nM corresponded to half-maximal inhibition (IC50).

As for `CNCc1cn(S(=O)(=O)c2cccc(OC(F)(F)F)c2)c2cc(Nc3ccc(C)nc3Cl)ccc12` [Example 205, N-(2-chloro-6-methylpyridin-3-yl)-3-((methylamino)methyl)-1-((3-(trifluoromethoxy)phenyl)sulfonyl)-1H-indol-6-amine hydrochloride], the IC50 turned out to be 1750 nM.

In the case of `CNCc1cn(S(=O)(=O)c2ccc(OC(F)(F)F)cc2)c2cc(Nc3ccc(C)cc3F)ccc12` [Example 206, N-(2-fluoro-4-methylphenyl)-3-((methylamino)methyl)-1-((4-(trifluoromethoxy)phenyl)sulfonyl)-1H-indol-6-amine hydrochloride], the IC50 came out at 2550 nM.

`CNCc1cn(S(=O)(=O)c2ccc(OC(F)(F)F)cc2)c2cc(Nc3ccc(C)cc3Cl)ccc12` [Example 207, N-(2-chloro-4-methylphenyl)-3-((methylamino)methyl)-1-((4-(trifluoromethoxy)phenyl)sulfonyl)-1H-indol-6-amine hydrochloride] showed an IC50 of 550 nM.

`CNCc1cn(S(=O)(=O)c2ccc(OC(F)(F)F)cc2)c2cc(Nc3ccc(OC(F)(F)F)cc3C)ccc12` [Example 209, N-(2-methyl-4-(trifluoromethoxy)phenyl)-3-((methylamino)methyl)1-((4-(trifluoromethoxy)phenyl)sulfonyl)-1H-indol-6-amine hydrochloride] returned an IC50 of 1060 nM.

In turn, `CNCc1cn(S(=O)(=O)c2cncc(F)c2)c2cc(Nc3ccc(OC(F)(F)F)cc3Cl)ccc12` [Example 215, N-(2-chloro-4-(trifluoromethoxy)phenyl)-1-((5-fluoropyridin-3-yl)sulfonyl)-3-((methylamino)methyl)-1H-indol-6-amine hydrochloride] returned an IC50 of 820 nM.

Regarding `CNCc1cn(S(=O)(=O)c2ccc(OC)cc2)c2cc(Nc3ccc(C)cc3Cl)ccc12` [Example 219, N-(2-chloro-4-methylphenyl)-1-((4-methoxyphenyl)sulfonyl)-3-((methylamino)methyl)-1H-indol-6-amine hydrochloride], the midpoint of inhibition, the IC50, lay at 270 nM.

`CNCc1cn(S(=O)(=O)c2ccc(OC(F)F)cc2)c2cc(Nc3ccc(C)cc3Cl)ccc12` [Example 220, N-(2-chloro-4-methylphenyl)-1-((4-(difluoromethoxy)phenyl)sulfonyl)-3-((methylamino)methyl)-1H-indol-6-amine hydrochloride] gave an IC50 of 290 nM.

With `CNCc1cn(S(=O)(=O)c2ccc(C(F)(F)F)cc2)c2cc(Nc3ccc(C)cc3Cl)ccc12` [Example 221, N-(2-chloro-4-methylphenyl)-3-((methylamino)methyl)-1-((4-(trifluoromethyl)phenyl)sulfonyl)-1H-indol-6-amine hydrochloride], the IC50 was found to be 1580 nM.

`CNCc1cn(S(=O)(=O)c2ccccc2)c2cc(Nc3ccc(C)cc3F)ccc12` [Example 222, N-(2-fluoro-4-methylphenyl)-3-((methylamino)methyl)-1-(phenylsulfonyl)-1H-indol-6-amine hydrochloride] displayed a 50% inhibitory concentration (IC50) of 1840 nM.

`CNCc1cn(S(=O)(=O)c2ccccc2C)c2cc(Nc3ccc(C)cc3F)ccc12` [Example 223, N-(2-fluoro-4-methylphenyl)-3-((methylamino)methyl)-1-(o-tolylsulfonyl)-1H-indol-6-amine hydrochloride]: it took 1290 nM to reach half-maximal inhibition (IC50).
